Measured values published in the NIST ThermoML archive (doi:10.1016/j.jct.2016.09.026).

Columns and labels:
[1] = Crystal
[2] = Molar enthalpy of transition or fusion; conditions: Crystal; DSC
[3] = molar heat capacity at constant pressure; conditions: 101.33 kPa, Crystal, Small sample (50 mg) DSC
[4] = molar enthalpy of vaporization or sublimation; conditions: 351.22 K; Crystal; Static calorimetry

CCCC(=O)c1ccc(O)cc1 [1-(4-hydroxyphenyl)-1-butanone]
Conditions	mass density [kg/m3]
[1], 298 K, 101.33 kPa, X-ray diffraction	1204.5

Conditions	Normal melting temperature [°C]	molar heat capacity at constant pressure [J/K/mol]
[1], DTA	91.6	–
[3], 288.67 K	–	219.2
[3], 289.99 K	–	221.2
[3], 291.29 K	–	221.3
[3], 291.6 K	–	222
[3], 292.87 K	–	223.3
[3], 294.14 K	–	224.2
[3], 295.4 K	–	225.7
[3], 296.66 K	–	227.4
[3], 297.92 K	–	228.6
[3], 299.17 K	–	229.2
[3], 300.43 K	–	231
[3], 301.68 K	–	232.3
[3], 302.94 K	–	232.9
[3], 304.19 K	–	234.6
[3], 305.45 K	–	234.9
[3], 306.7 K	–	236.9
[3], 307.95 K	–	238.6
[3], 309.21 K	–	239.7
[3], 310.46 K	–	240.7
[3], 311.71 K	–	242
[3], 312.96 K	–	243.7
[3], 314.21 K	–	244.9
[3], 315.46 K	–	245.8
[3], 316.71 K	–	247
[3], 317.96 K	–	247.7
[3], 319.22 K	–	249.1
[3], 320.47 K	–	250.2
[3], 321.72 K	–	251.4
[3], 322.97 K	–	253
[3], 324.23 K	–	254.5
[3], 325.48 K	–	256.4
[3], 326.73 K	–	257.1
[3], 327.98 K	–	258.9
[3], 329.23 K	–	260.2
[3], 330.48 K	–	262.1
[3], 331.73 K	–	263.6
[3], 332.98 K	–	265.5
[3], 334.23 K	–	265.9
[3], 335.48 K	–	267.6
[3], 336.73 K	–	270.1
[3], 337.98 K	–	270.4
[3], 339.23 K	–	272
[3], 340.48 K	–	274.4
[3], 341.73 K	–	276
[3], 342.98 K	–	278.2
[3], 344.23 K	–	279.7
[3], 345.48 K	–	281.2
[3], 346.73 K	–	282.8
[3], 347.98 K	–	284.5
[3], 349.23 K	–	287
[3], 350.48 K	–	289

Conditions	Molar enthalpy of transition or fusion [kcal/mol]	molar enthalpy [kcal/mol]
[2]	5.73	–
[4]	–	27.3
